Experimental data as given in paper PMC5636118, “Recombinant laccase from Pediococcus acidilactici CECT 5930 with ability to degrade tyramine” (PLoS ONE, 2017).

Target: T1, Lpa5930; P. acidilactici CECT 5930 laccase (D2EK17 protein) (Pediococcus acidilactici, UniProt Z9B926UHL0)
T1 construct: pET28a, E. coli BL21(DE3)/pGro7; ~60 kDa by SDS-PAGE; D2EK17 is the UniProt entry of the strain 7_4 homologue
T1 sequence (Z9B926UHL0 1-477): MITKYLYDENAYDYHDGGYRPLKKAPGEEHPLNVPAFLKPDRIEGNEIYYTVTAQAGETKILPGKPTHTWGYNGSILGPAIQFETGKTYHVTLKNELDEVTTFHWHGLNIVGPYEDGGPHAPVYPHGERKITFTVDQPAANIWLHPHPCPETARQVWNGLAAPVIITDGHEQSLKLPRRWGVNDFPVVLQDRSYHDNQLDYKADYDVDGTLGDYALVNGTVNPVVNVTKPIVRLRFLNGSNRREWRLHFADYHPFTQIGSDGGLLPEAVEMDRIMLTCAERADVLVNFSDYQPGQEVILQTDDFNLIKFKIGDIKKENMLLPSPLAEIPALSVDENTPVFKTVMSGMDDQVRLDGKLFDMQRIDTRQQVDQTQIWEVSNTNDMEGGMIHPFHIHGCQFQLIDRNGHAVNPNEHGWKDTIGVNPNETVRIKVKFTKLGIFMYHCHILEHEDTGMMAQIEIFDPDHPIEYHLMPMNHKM
Experiment: ABTS oxidation, absorbance at […] nm, Michaelis-Menten fit
Format: biochemical
Conditions: acetate buffer pH 4.0, 28°C; apparent Km (abstract)

Km: 1700 µM
SMILES: CCn1c(=NN=c2sc3cc(S(=O)(=O)O)ccc3n2CC)sc2cc(S(=O)(=O)O)ccc21 [ABTS, 2,2′-azino-bis(3-ethylbenzothiazoline-6-sulfonic acid)]
